Where “and” joins values, the source holds several entries; their conditions need not be identical. Equal entries are not always repeated. Toxic doses and inconclusive results are not listed.
Test system: AK4 lymphoid leukemia ip, C3AKF1 mice, survival
Assay: NCI In Vivo Anticancer Drug Screen. Data for tumor model AK4 Lymphoid Leukemia (intraperitoneal) in C3AKF1 (CHKRF1) mice
Settings: endpoint: median survival time, higher = longer survival
Experimental: The antitumor activity of compounds was measured in mice bearing transplantable tumors. Survival or tumor size were measured and the results are expressed as the measurement made in the treated group (T) divided by the measurement made in the vehicle treated control group (C). The tumor model used in this assay is AK4 Lymphoid Leukemia (intraperitoneal) in C3AKF1 (CHKRF1) mice

[1] = dose: 10.0 mg/kg/injection, schedule: Q01DX010 (ip), vehicle: saline
[2] = dose: 20.0 mg/kg/injection, schedule: Q01DX010 (ip), vehicle: saline
[3] = dose: 40.0 mg/kg/injection, schedule: Q01DX010 (ip), vehicle: saline
[4] = dose: 80.0 mg/kg/injection, schedule: Q01DX010 (ip), vehicle: saline
[5] = dose: 3.13 mg/kg/injection, schedule: Q01DX010 (ip), vehicle: saline
[6] = dose: 6.25 mg/kg/injection, schedule: Q01DX010 (ip), vehicle: saline
[7] = dose: 12.5 mg/kg/injection, schedule: Q01DX010 (ip), vehicle: saline
[8] = dose: 25.0 mg/kg/injection, schedule: Q01DX010 (ip), vehicle: saline
[9] = dose: 50.0 mg/kg/injection, schedule: Q01DX010 (ip), vehicle: saline
[10] = dose: 100.0 mg/kg/injection, schedule: Q01DX010 (ip), vehicle: saline
[11] = dose: 60.0 mg/kg/injection, schedule: Q01DX010 (ip), vehicle: saline
[12] = dose: 12.0 mg/kg/injection, schedule: Q01DX010 (ip), vehicle: saline
[13] = dose: 2.5 mg/kg/injection, schedule: Q01DX010 (ip), vehicle: saline
[14] = dose: 5.0 mg/kg/injection, schedule: Q01DX010 (ip), vehicle: saline
[15] = dose: 62.5 mg/kg/injection, schedule: Q01DX010 (ip), vehicle: saline
[16] = dose: 125.0 mg/kg/injection, schedule: Q01DX010 (ip), vehicle: saline
[17] = dose: 250.0 mg/kg/injection, schedule: Q01DX010 (ip), vehicle: saline
[18] = dose: 500.0 mg/kg/injection, schedule: Q01DX010 (ip), vehicle: saline
[19] = dose: 125.0 micrograms/kg/injection, schedule: Q01DX010 (ip), vehicle: saline
[20] = dose: 250.0 micrograms/kg/injection, schedule: Q01DX010 (ip), vehicle: saline
[21] = dose: 500.0 micrograms/kg/injection, schedule: Q01DX010 (ip), vehicle: saline
[22] = dose: 2.0 mg/kg/injection, schedule: Q01DX010 (ip), vehicle: saline

S=c1nc[nH]c2nc[nH]c12
T/C (dose: 5.0 mg/kg/injection, schedule: Q01DX010 (ip), vehicle: alkali diluted with saline): 100 % of control
T/C (dose: 5.0 mg/kg/injection, schedule: Q01DX Z (ip), vehicle: saline): 93 % of control
T/C (dose: 10.0 mg/kg/injection, schedule: Q01DX010 (ip), vehicle: alkali diluted with saline): 95 % of control and 118 % of control
T/C (dose: 10.0 mg/kg/injection, schedule: Q01DX Z (ip), vehicle: saline): 93 % of control and 96 % of control
T/C (dose: 20.0 mg/kg/injection, schedule: Q01DX010 (ip), vehicle: alkali diluted with saline): 100 % of control and 112 % of control
T/C (dose: 20.0 mg/kg/injection, schedule: Q01DX Z (ip), vehicle: saline): 90 % of control and 106 % of control
T/C (dose: 40.0 mg/kg/injection, schedule: Q01DX010 (ip), vehicle: alkali diluted with saline): 93 % of control and 110 % of control
T/C (dose: 40.0 mg/kg/injection, schedule: Q01DX Z (ip), vehicle: saline): 93 % of control and 96 % of control
T/C (dose: 80.0 mg/kg/injection, schedule: Q01DX010 (ip), vehicle: alkali diluted with saline): 100 % of control
T/C (dose: 80.0 mg/kg/injection, schedule: Q01DX Z (ip), vehicle: saline): 93 % of control and 96 % of control

CC1CCOS(=O)O1 (stereo unspecified)
T/C [1]: 100 % of control
T/C [2]: 88 % of control and 100 % of control
T/C [3]: 90 % of control and 100 % of control
T/C [4]: 88 % of control

O=c1[nH]cc(F)c(=O)[nH]1
T/C [2]: 162 % of control
T/C [3]: 112 % of control
T/C [4]: 93 % of control

O=[n+]1c2c(n([O-])c3ccccc31)-c1cccc3cccc-2c13
T/C [5]: 100 % of control
T/C [6]: 100 % of control
T/C [7]: 100 % of control
T/C [8]: 88 % of control and 94 % of control
T/C [9]: 88 % of control
T/C [10]: 88 % of control

Clc1ncnc2nc[nH]c12
T/C (dose: 7.5 mg/kg/injection, schedule: Q01DX010 (ip), vehicle: saline): 100 % of control and 87 % of control
T/C (dose: 15.0 mg/kg/injection, schedule: Q01DX010 (ip), vehicle: saline): 100 % of control and 114 % of control
T/C (dose: 30.0 mg/kg/injection, schedule: Q01DX010 (ip), vehicle: saline): 100 % of control and 87 % of control
T/C [11]: 87 % of control and 100 % of control

O=NN(CCCl)C(=O)NCCCl
T/C [6]: 168 % of control and 185 % of control
T/C [7]: 160 % of control and 181 % of control

C[n+]1c2ccccc2nc2c(N)cc(N)cc21
T/C [12]: 106 % of control
T/C (dose: 18.0 mg/kg/injection, schedule: Q01DX010 (ip), vehicle: saline): 106 % of control
T/C (dose: 27.0 mg/kg/injection, schedule: Q01DX010 (ip), vehicle: saline): 100 % of control

CC[n+]1c(-c2ccccc2)c2cc(N)ccc2c2ccc(N)cc21
T/C (dose: 1.25 mg/kg/injection, schedule: Q01DX010 (ip), vehicle: saline): 100 % of control
T/C [13]: 100 % of control
T/C [14]: 100 % of control
T/C [1]: 100 % of control and 112 % of control
T/C [2]: 112 % of control

COS(C)(=O)=O
T/C [7]: 100 % of control and 105 % of control
T/C [8]: 100 % of control
T/C [9]: 88 % of control and 116 % of control
T/C [10]: 100 % of control and 111 % of control

C[C@]12C=CC(=O)C=C1CC[C@@H]1[C@@H]2[C@@H](O)C[C@@]2(C)[C@H]1CC[C@]2(O)C(=O)CO
T/C (dose: 12.5 mg/kg/injection, schedule: Q01DX010 (sc), vehicle: steriod suspending solution): 90 % of control and 110 % of control
T/C (dose: 25.0 mg/kg/injection, schedule: Q01DX010 (sc), vehicle: steriod suspending solution): 95 % of control
T/C (dose: 50.0 mg/kg/injection, schedule: Q01DX010 (sc), vehicle: steriod suspending solution): 100 % of control and 105 % of control
T/C (dose: 100.0 mg/kg/injection, schedule: Q01DX010 (sc), vehicle: steriod suspending solution): 90 % of control

Nc1c(Br)cc2c(c1Br)Cc1cc([N+](=O)[O-])ccc1-2
T/C [15]: 100 % of control and 105 % of control
T/C [16]: 94 % of control and 100 % of control
T/C [17]: 94 % of control and 105 % of control
T/C [18]: 94 % of control

c1ccc(CCSc2ncnc3nc[nH]c23)cc1
T/C [15]: 100 % of control
T/C [16]: 100 % of control
T/C [17]: 100 % of control
T/C [18]: 100 % of control

CSCS(=O)C[C@H](CO)NC(=O)/C=C/c1c(C)[nH]c(=O)[nH]c1=O (stereo partly specified)
T/C [19]: 93 % of control
T/C [20]: 87 % of control
T/C [21]: 87 % of control

CCN(CC)CCNc1ccc(C)c2sc3ccccc3c(=O)c12
T/C [8]: 122 % of control
T/C [10]: 105 % of control

CC[C@@H](c1ccc(O)cc1)[C@@H](CC)c1ccc(O)cc1
T/C (dose: 25.0 mg/kg/injection, schedule: Q01DX010 (ip), vehicle: water): 100 % of control
T/C (dose: 50.0 mg/kg/injection, schedule: Q01DX010 (ip), vehicle: water): 87 % of control
T/C (dose: 100.0 mg/kg/injection, schedule: Q01DX010 (ip), vehicle: water): 87 % of control
T/C (dose: 200.0 mg/kg/injection, schedule: Q01DX010 (ip), vehicle: water): 87 % of control

NC(Cc1ccc(N(CCCl)CCCl)cc1)C(=O)O (stereo unspecified)
T/C [22]: 150 % of control
T/C [13]: 164 % of control
T/C [14]: 164 % of control
T/C (dose: 8.0 mg/kg/injection, schedule: Q01DX010 (ip), vehicle: saline): 150 % of control
T/C [1]: 158 % of control
T/C (dose: 16.0 mg/kg/injection, schedule: Q01DX010 (ip), vehicle: saline): 100 % of control
T/C [2]: 117 % of control

CC(=O)Nc1ccc2nc3ccc(NC(C)=O)cc3[n+](-c3ccccc3)c2c1
T/C [9]: 117 % of control
T/C [10]: 105 % of control
T/C (dose: 200.0 mg/kg/injection, schedule: Q01DX010 (ip), vehicle: saline): 117 % of control
T/C (dose: 400.0 mg/kg/injection, schedule: Q01DX010 (ip), vehicle: saline): 105 % of control

N=C(N)c1ccc(Nc2ccc(C(=N)N)cc2)cc1
T/C (dose: 1.5 mg/kg/injection, schedule: Q01DX010 (ip), vehicle: saline): 88 % of control
T/C (dose: 3.0 mg/kg/injection, schedule: Q01DX010 (ip), vehicle: saline): 88 % of control and 122 % of control
T/C (dose: 6.0 mg/kg/injection, schedule: Q01DX010 (ip), vehicle: saline): 94 % of control and 105 % of control
T/C [12]: 94 % of control and 111 % of control

CC(=O)NC1=C(N2CC2)C(=O)C(NC(C)=O)=C(N2CC2)C1=O
T/C (dose: 0.5 mg/kg/injection, schedule: Q01DX010 (ip), vehicle: saline): 152 % of control
T/C (dose: 1.0 mg/kg/injection, schedule: Q01DX010 (ip), vehicle: saline): 152 % of control
T/C [22]: 88 % of control
T/C [19]: 100 % of control
T/C [20]: 111 % of control
T/C [21]: 116 % of control

CN(C)c1ccc(/C=C/c2ccnc3ccccc23)cc1
T/C [14]: 111 % of control
T/C [1]: 105 % of control
T/C [2]: 94 % of control
T/C [3]: 100 % of control

CCN(CCNc1ccc(C)c2sc3cc(Cl)ccc3c(=O)c12)CC(C)O (stereo unspecified)
T/C (dose: 31.3 mg/kg/injection, schedule: Q01DX010 (ip), vehicle: saline): 94 % of control
T/C [15]: 88 % of control and 94 % of control
T/C [16]: 94 % of control
T/C [17]: 88 % of control

[I][Hg][CH2]C1COC([CH2][Hg][I])CO1 (stereo unspecified)
T/C (dose: 0.78 mg/kg/injection, schedule: Q01DX010 (ip), vehicle: saline): 106 % of control
T/C (dose: 1.56 mg/kg/injection, schedule: Q01DX010 (ip), vehicle: saline): 100 % of control
T/C [5]: 100 % of control
T/C [6]: 100 % of control
T/C [7]: 88 % of control

N#Cc1cn(C2OC(CO)C(O)C2O)c2ncnc(N)c12 (stereo unspecified)
T/C (dose: 31.3 micrograms/kg/injection, schedule: Q01DX010 (ip), vehicle: saline): 100 % of control
T/C (dose: 62.5 micrograms/kg/injection, schedule: Q01DX010 (ip), vehicle: saline): 100 % of control
T/C [19]: 118 % of control
T/C [20]: 100 % of control

Nc1ncnc2c1ccn2C1OC(CO)C(O)C1O (stereo unspecified)
T/C (dose: 156.0 micrograms/kg/injection, schedule: Q01DX010 (ip), vehicle: saline): 106 % of control
T/C (dose: 313.0 micrograms/kg/injection, schedule: Q01DX010 (ip), vehicle: saline): 112 % of control
T/C (dose: 625.0 micrograms/kg/injection, schedule: Q01DX010 (ip), vehicle: saline): 112 % of control
T/C (dose: 1250.0 micrograms/kg/injection, schedule: Q01DX010 (ip), vehicle: saline): 112 % of control

CN(N=O)C(=O)NC(C=O)C(O)C(O)C(O)CO (stereo unspecified)
T/C [11]: 150 % of control
T/C (dose: 90.0 mg/kg/injection, schedule: Q01DX010 (ip), vehicle: saline): 150 % of control
